{"source": "patent US9011839B2", "about": "“Anti-inflammatory and anti-vaginitis food composition and pharmaceutical composition containing Lactobacillus” (Glac Biotech Co., Ltd., priority 2010, dated 2015)", "key": {"vaginitis patients": {"system": "vaginitis patients", "details": "Barrons et al (2008); tampons, 4-8 weeks; cited from earlier work"}, "human dendritic cells [1]": {"system": "human dendritic cells", "test": "Stimulation of IL-10 secretion using an in vitro assay platform of dendritic cells", "type": "cell-based", "details": "human dendritic cells co-cultured 48 hours with heated LAB (1:10); supernatant ELISA; Mean±SD", "method": "B. Stimulation of IL-10 Secretion Using an In Vitro Assay Platform of Dendritic Cells.\nIn order to measure the increased amount of IL-10 secretion, human dendritic cells and the above-mentioned lactic acid bacteria are co-cultured and the secretion of IL-10 is then measured so as to determine the promoting effect on inhibiting inflammatory cells from secreting cytokine. The assay procedures are listed as followings: • 1. 200 mL human blood are obtained from healthy donors; • 2. 1:1 blood isolates (Ficoll-paque) and blood are centrifuged at 400 g in 18-20° C. for 30-40 min. • 3. Cells obtained from human PBMC (Peripheral Blood Mononuclear Cell) layer are washed with buffer solution 2-3 times and suspended with appropriate culture medium such as RPMI-1640. • 4. CD14^+ monocytes are purified from PBMC cells by using CD14^+ microbeads (MiniMACS system). • 5. Cells are differentiated into dendritic cells after incubating for 6-7 days by stimulating with IL-4 and GM-CSF and differentiated dendritic cells are then collected. • 6. The lactic acid bacteria strain is activated 3 days before co-culture and is then heated for thermal death at 100° C. for 30 min. • 7. The dendritic cells and the heated lactic acid bacteria strain (1:10) are co-cultured for 48 hours. • 8. […]\nThe statistic results (Mean±SD) of data are analyzed in Table 4. […]"}, "human dendritic cells [2]": {"system": "human dendritic cells", "test": "Inhibition of TNF-α secretion using an in vitro assay platform of dendritic cells", "type": "cell-based", "details": "human dendritic cells co-cultured 48 hours with heated LAB (1:10); supernatant ELISA; Mean±SD", "method": "A. Inhibition of TNF-α Secretion Using an In Vitro Assay Platform of Dendritic Cells.\nThe inhibition assay for Th17 immune response is implemented by measuring TNF-α secretion after co-culture with the above-mentioned lactic acid bacteria. The assay procedures are listed as followings: • 1. 200 mL human blood are obtained from healthy donors. • 2. 1:1 blood isolates (Ficoll-paque) and blood are centrifuged at 400 g in 18-20° C. for 30-40 min. • 3. Cells obtained from human PBMC (Peripheral Blood Mononuclear Cell) layer are washed with buffer solution 2-3 times and suspended with appropriate culture medium such as RPMI-1640. • 4. CD14^+ monocytes are purified from PBMC cells by using CD14^+ microbeads (MiniMACS system). • 5. Cells are differentiated into dendritic cells after incubating for 6-7 days by stimulating with IL-4 and GM-CSF and differentiated dendritic cells are then collected. • 6. The lactic acid bacteria strain is activated 3 days before co-culture and is then heated for thermal death at 100° C. for 30 min. • 7. The dendritic cells and the heated lactic acid bacteria strain (1:10) are co-cultured for 48 hours. • 8. The supernatant of the cell culture medium is collected and used for measuring TNF-α amount by using ELISA (enzyme-linked-immunosorbent serologic assay).\nThe statistic results (Mean±SD) of data are analyzed in Table 3. […]"}}, "data": [{"compound": "CC(=O)O", "note": "[acetic acid]", "values": [{"measurement": "vaginitis patients revealing improvement", "setting": "vaginitis patients", "value": 38, "unit": "%"}]}, {"compound": "Phytohemagglutinin [PHA]", "values": [{"measurement": "IL-10 Secretion", "setting": "human dendritic cells [1]", "value": "9145 ± 118", "unit": "pg/mL"}]}, {"compound": "Lipopolysaccharide [LPS]", "values": [{"measurement": "TNF-α Secretion", "setting": "human dendritic cells [2]", "value": "1521 ± 37", "unit": "pg/mL"}]}]}
